Measurements: the Kinase Knowledgebase extract (Sharma et al. 2016)
Several values for one entry are separate records, joined by “and”; a condition that tells them apart may be missing. Identical values can stand only once.

These molecules were tested against CDK2 (human) (UniProt P24941) (assay: Enzyme Assay). Details: not given.

With `CC(C)n1cnc2c(NCc3ccc(-c4ccccc4)cc3)nc(NC[C@H](C)NC(=O)OC(C)(C)C)nc21` as the molecule, how does the IC50 read?
Its IC50 is 4000 nM and 11000 nM.

`CN1CC[C@@H](c2c(O)cc(O)c3c(=O)cc(C4CCCCC4Cl)oc23)[C@@H](O)C1` (stereo partly specified) was tested. Which IC50 did it give?
Its IC50 is 200 nM and 60 nM.

`CCn1cnc2c(NCc3ccc(Cl)cc3)nc(N[C@H]3CCCC[C@H]3N)nc21` was tested. Which IC50 did it give?
Its IC50 is 1000 nM.

What follows are molecules tested against CDK2;CDK1 (human) (UniProt P24941) (assay: Cell-Based Assay). Details: hela-s3.

Which GI50 does the source give for `CC(C)n1cnc2c(NCc3ccc(-c4ccccc4)cc3)nc(NCCN)nc21` here?
Its GI50 is 200 nM and 400 nM.

`CC(C)n1cnc2c(NCc3ccc(-c4ccccc4)cc3)nc(N[C@H]3CC[C@H](NC(=O)C4CC4)CC3)nc21` was tested. Which GI50 did it give?
Its GI50 is 300 nM.

For `CC(C)n1cnc2c(NCCc3ccc(-c4ccsc4)cc3)nc(N[C@H]3CC[C@H](NC(=O)OC(C)(C)C)CC3)nc21`, which GI50 is on record?
Its GI50 is > 10000 nM and 7000 nM.

Which GI50 does the source give for `CC(C)n1cnc2c(NCc3ccc(-c4ccccc4)cc3)nc(N[C@H]3CC[C@H](N4C(=O)CCC4=O)CC3)nc21` here?
The GI50 was 300 nM and 200 nM and 500 nM.

Which GI50 does the source give for `CCC(=O)N[C@H]1CC[C@H](Nc2nc(NCc3ccc(-c4ccccc4)cc3)c3ncn(C(C)C)c3n2)CC1` here?
The GI50 was 200 nM and 400 nM and 300 nM.

`CC(=O)N[C@H]1CC[C@H](Nc2nc(NCc3ccc(-c4cccc(C)c4)cc3)c3ncn(C(C)C)c3n2)CC1` was tested. Which GI50 did it give?
Its GI50 is 400 nM and 200 nM.

How did the GI50 turn out when `CC(C)n1cnc2c(NCc3ccc(-c4ccccc4)cc3)nc(N[C@H]3CC[C@H](NS(C)(=O)=O)CC3)nc21` was run?
The GI50 was 200 nM and 100 nM.

With `CC(C)n1cnc2c(NCc3ccc(-c4ccccc4)cc3)nc(N3CCC(N)C3)nc21` (stereo unspecified) as the molecule, how does the GI50 read?
Its GI50 is 500 nM.

For `CC(C)n1cnc2c(NCc3ccc(-c4ccccc4)cc3)nc(NCCCN)nc21`, which GI50 is on record?
The GI50 was 300 nM and 600 nM.

With `COc1cccc(-c2ccc(CNc3nc(N[C@H]4CC[C@H](NC(C)=O)CC4)nc4c3ncn4C(C)C)cc2)c1` as the molecule, how does the GI50 read?
Its GI50 is 300 nM and 400 nM.

Which GI50 does the source give for `CC(C)n1cnc2c(NCc3ccc(-c4ccccc4)cc3)nc(NC[C@H](C)NC(=O)OC(C)(C)C)nc21` here?
The GI50 was 300 nM and 100 nM.

Which GI50 does the source give for `CCN(C(C)=O)[C@H]1CC[C@H](Nc2nc(NCc3ccc(-c4ccccc4)cc3)c3ncn(C(C)C)c3n2)CC1` here?
Its GI50 is 600 nM and 800 nM.

Which GI50 does the source give for `CCCCN[C@H]1CC[C@H](Nc2nc(NCc3ccc(-c4ccccc4)cc3)c3ncn(C(C)C)c3n2)CC1` here?
The GI50 was 500 nM and 300 nM.

How did the GI50 turn out when `CC(C)n1cnc2c(NCc3ccc(-c4ccccc4)cc3)nc(N[C@H]3CC[C@H](N(CC4CC4)CC4CC4)CC3)nc21` was run?
Its GI50 is 30 nM.

How did the GI50 turn out when `COC(=O)N[C@H]1CC[C@H](Nc2nc(NCc3ccc(-c4ccccc4)cc3)c3ncn(C(C)C)c3n2)CC1` was run?
The GI50 was 700 nM and 400 nM and 300 nM.

`CCn1cnc2c(NCc3ccc(Cl)cc3)nc(N[C@H]3CCCC[C@H]3N)nc21` was tested. Which GI50 did it give?
Its GI50 is 3000 nM.

How did the GI50 turn out when `CCN[C@H]1CC[C@H](Nc2nc(NCc3ccc(-c4ccccc4)cc3)c3ncn(C(C)C)c3n2)CC1` was run?
The GI50 was 2000 nM and 900 nM.

`CC(C)n1cnc2c(NCc3ccc(-c4ccccc4)cc3)nc(N3CCC(C(N)=O)CC3)nc21` was tested. Which GI50 did it give?
Its GI50 is 5000 nM and 3000 nM.

`CC(C)n1cnc2c(NCc3ccc(-c4ccccc4)cc3)nc(N[C@H]3CC[C@H](NCC4CC4)CC3)nc21` was tested. Which GI50 did it give?
Its GI50 is 300 nM.

`CC(C)n1cnc2c(NCc3ccc(-c4ccccc4)cc3)nc(N[C@H]3CC[C@H](NS(=O)(=O)C(F)(F)F)CC3)nc21` was tested. Which GI50 did it give?
Its GI50 is 3000 nM and 2000 nM and 4000 nM.

With `CC(=O)NCCNc1nc(NCc2ccc(-c3ccccc3)cc2)c2ncn(C(C)C)c2n1` as the molecule, how does the GI50 read?
Its GI50 is 3000 nM and 4000 nM.

Biological target: CDK2 (human) (UniProt P24941)
Assay: Enzyme Assay
Details: not given
Remark: another data set of the same source

`CC(C)n1cnc2c(NCc3ccc(-c4ccccc4)cc3)nc(NC[C@H](C)NC(=O)OC(C)(C)C)nc21` was tested. Which IC50 did it give?
The IC50 was 3000 nM and 1000 nM.

How did the IC50 turn out when `CCn1cnc2c(NCc3ccc(Cl)cc3)nc(N[C@H]3CCCC[C@H]3N)nc21` was run?
The IC50 was 100 nM.
